Test results reported in patent US20060276498A1 (Wyeth, priority 2005, published 2006).

Biological target: T1, human Cot/Tpl2 kinase (Homo sapiens, UniProt P41279)
T1 construct: human Cot/Tpl2 kinase construct encoding residues 30-398; 6His (N); made in house; host or cells: Sf9 insect cells (baculovirus system, BD Biosciences)
Experiment: Tpl2/Cot kinase assay, GST-MEK1 phosphorylation detected by ELISA (DELFIA Eu)
Assay type: biochemical
Protocol: Sf9 cells expressing the kinase were lysed in 50 mM NaPhosphate pH=8; 300 mM NaCl; 5 mM imidazole; 0.1 mM EGTA; 25 mM beta-glycerophosphate; 1% TX-100, 1% glycerol; 6 mM beta-mercaptoethanol and protease inhibitors. The lysate was clarified by centrifugation and was loaded onto a Ni-Sepharose column. The column was washed with 50 mM NaPhosphate pH=8; 300 mM NaCl; 15 mM imidazole; 1% glycerol; and 6 mM beta-mercaptoethanol. His-Tpl2 was eluted with 50 mM NaPhosphate pH=8; 300 mM NaCl; 250 mM imidazole; 1% glycerol; and 6 mM beta-mercaptoethanol. The eluted protein was further purified by size exclusion chromatography. Fractions corresponding to monomeric Tpl2 were then used in the assay.
Tpl2/Cot activity was directly assayed using GST-MEK1 as a substrate. GST-MEK1 phosphorylation on serine residues 217 and 221 was detected by ELISA. 0.4 nM Tpl2 was incubated with 35 nM GST-MEK1 in a kinase reaction buffer containing 20 mM MOPS pH=7.2; 50 uM ATP; 20 mM MgCl2; 1 mM DTT; 25 mM β-glycerophosphate; 5 mM EGTA; and 1 mM sodium orthovanadate for 1 h at 30° C. The compounds of the inventions solubilized in 100% DMSO were pre-diluted in assay buffer so that the final concentration of DMSO in the reaction was 1%. The kinase reaction was carried out in 100 ul volume on 96 well plates. The kinase reaction was then stopped with the addition of 100 mM EDTA. […] After a 1 hour incubation at room temperature, the detection plate was washed 4 times with TBST (TBS+0.05% Tween 20) and then incubated for another hour at room temperature with anti phospho-MEK1 antibody (Cell Signaling) 1:1000 in 10 mM MOPS 7.5; 150 mM NaCl; 0.05% Tween 20; 0.1% Gelatin; 0.02% NaN3; and 1% BSA. The detection plate was washed again and incubated for 30 min with DELFIA Europium (Eu) labeled goat anti-rabbit IgG (Perkin-Elmer), 1:4000 in the same buffer used for the primary incubation. After a final wash, Eu detection solution was added to each well and the Eu signal was measured in a Wallac Victor^2 Multilabel Counter. IC50 calculations were preformed using the XLfit software package (IDBS, Guildford, UK).

[1] = Table 1, 0.4 nM Tpl2, 35 nM GST-MEK1, 50 uM ATP, 1 h at 30° C.
[2] = Table 2, additional representative compounds

T1 sequence (P41279 30-398): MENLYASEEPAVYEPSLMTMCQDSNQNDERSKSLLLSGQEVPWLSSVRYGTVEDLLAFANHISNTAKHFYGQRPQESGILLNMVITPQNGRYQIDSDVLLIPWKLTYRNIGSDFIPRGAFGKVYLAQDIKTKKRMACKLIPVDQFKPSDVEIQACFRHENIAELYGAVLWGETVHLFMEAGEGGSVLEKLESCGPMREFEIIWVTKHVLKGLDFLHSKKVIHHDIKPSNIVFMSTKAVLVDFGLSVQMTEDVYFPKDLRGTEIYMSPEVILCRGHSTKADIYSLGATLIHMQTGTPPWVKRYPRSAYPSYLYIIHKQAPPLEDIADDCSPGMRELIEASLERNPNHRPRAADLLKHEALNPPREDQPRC

An IC50 [1] of 0.1 µM was found for `N#Cc1cnc2cnc(NCc3ccccc3)cc2c1Nc1ccc(F)c(Cl)c1` [Example 47, 6-(benzylamino)-4-[(3-chloro-4-fluorophenyl)amino]-1,7-naphthyridine-3-carbonitrile] in this work.
An IC50 [2] greater than 40 µM was found for `CC(C)c1ccc(Nc2c(C#N)cnc3cnc(F)cc23)cc1` [Example 101, 6-fluoro-4-[(4-isopropylphenyl)amino]-1,7-naphthyridine-3-carbonitrile] in this work.
An IC50 [1] of 20 µM was found for `CN1CCN(CCCNc2cc3c(Nc4ccc(F)c(Cl)c4)c(C#N)cnc3cn2)CC1` [Example 45, 4-[(3-chloro-4-fluorophenyl)amino]-6-{[3-(4-methylpiperazin-1-yl)propyl]amino}-1,7-naphthyridine-3-carbonitrile] in this work.
An IC50 [2] greater than 10 µM was found for `N#Cc1cnc2cnc(F)cc2c1Nc1cccc([N+](=O)[O-])c1` [Example 105, 6-fluoro-4-[(3-nitrophenyl)amino]-1,7-naphthyridine-3-carbonitrile] in this work.
An IC50 [1] of 3.7 µM was found for `N#Cc1cnc2cnc(N[C@H](CN3CCOCC3)c3ccccc3)cc2c1Nc1ccc(F)c(Cl)c1` [Example 58, 4-[(3-chloro-4-fluorophenyl)amino]-6-{[(1S)-2-morpholin-4-yl-1-phenylethyl]amino}-1,7-naphthyridine-3-carbonitrile] in this work.
An IC50 [2] greater than 40 µM was found for `N#Cc1cnc2cnc(F)cc2c1Nc1ccc(OC(F)(F)F)cc1` [Example 128, 6-fluoro-4-{[4-(trifluoromethoxy)phenyl]amino}-1,7-naphthyridine-3-carbonitrile] in this work.
An IC50 [1] of 0.006 µM was found for `N#Cc1cnc2cnc(NCCN3CCOCC3)cc2c1Nc1ccc(Sc2ccccc2)cc1` [Example 11, 6-(2-morpholinoethylamino)-4-(4-(phenylthio)phenylamino)-1,7-naphthyridine-3-carbonitrile] in this work.
An IC50 [1] greater than 10 µM was found for `N#Cc1cnc2cnc(NCCN3CCOCC3)cc2c1Nc1cccc(N)c1` [Example 82, 4-(3-aminophenylamino)-6-(2-morpholinoethylamino)-1,7-naphthyridine-3-carbonitrile] in this work.
An IC50 [2] of 24.6 µM was found for `N#Cc1cnc2cnc(NCc3c(Cl)cccc3Cl)cc2c1Nc1ccc(F)c(Cl)c1` [Example 126, 4-[(3-chloro-4-fluorophenyl)amino]-6-[(2,6-dichlorobenzyl)amino]-1,7-naphthyridine-3-carbonitrile] in this work.
An IC50 [1] of 3 µM was found for `N#Cc1cnc2cnc(NCCCN3CCOCC3)cc2c1Nc1ccc(F)c(Cl)c1` [Example 49, 4-[(3-chloro-4-fluorophenyl)amino]-6-[(3-morpholin-4-ylpropyl)amino]-1,7-naphthyridine-3-carbonitrile] in this work.
An IC50 [2] of 0.16 µM was found for `N#Cc1cnc2cnc(NCc3cccnc3)cc2c1NC1CCCCCC1` [Example 113, 4-(cycloheptylamino)-6-[(pyridin-3-ylmethyl)amino]-1,7-naphthyridine-3-carbonitrile] in this work.
An IC50 [1] of 1.3 µM was found for `C[C@H](Nc1cc2c(Nc3ccc(F)c(Cl)c3)c(C#N)cnc2cn1)[C@H](O)c1ccccc1` [Example 54, 4-[(3-chloro-4-fluorophenyl)amino]-6-{[(1S, 2R)-2-hydroxy-1-methyl-2-phenylethyl]amino}-1,7-naphthyridine-3-carbonitrile] in this work.
An IC50 [1] greater than 40 µM was found for `Cc1cccc(Nc2c(C#N)cnc3cnc(NCc4cccnc4)cc23)c1` [Example 29, 4-(3-methylphenylamino)-6-(pyridin-3-ylmethylamino)-1,7-naphthyridine-3-carbonitrile] in this work.
An IC50 [1] of 0.065 µM was found for `N#Cc1cnc2cnc(NCc3cccnc3)cc2c1Nc1cccc(Cl)c1` [Example 12, 4-(3-chlorophenylamino)-6-(pyridin-3-ylmethylamino)-1,7-naphthyridine-3-carbonitrile] in this work.
An IC50 [1] of 0.94 µM was found for `C[C@@H](Nc1cc2c(Nc3cc(Cl)cc(Cl)c3)c(C#N)cnc2cn1)c1ccccc1` [Example 68] in this work.
An IC50 [2] greater than 40 µM was found for `C#CC(C)(C)Nc1c(C#N)cnc2cnc(NCc3cccnc3)cc12` [Example 138, 4-[(1,1-dimethylprop-2-ynyl)amino]-6-[(pyridin-3-ylmethyl)amino]-1,7-3-carbonitrile] in this work.
An IC50 [1] of 4.6 µM was found for `N#Cc1cnc2cnc(NCCN3CCOCC3)cc2c1Nc1ccc(C(=O)c2ccccc2)cc1` [Example 27, 4-(4-benzoylphenylamino)-6-(2-morpholinoethylamino)-1,7-naphthyridine-3-carbonitrile] in this work.
An IC50 [1] greater than 40 µM was found for `COC(=O)c1ccc(Nc2c(C#N)cnc3cnc(NCc4cccnc4)cc23)cc1` [Example 30, Methyl 4-(3-cyano-6-(pyridin-3-ylmethylamino)-1,7-naphthyridin-4-ylamino)benzoate] in this work.
An IC50 [1] of 1.5 µM was found for `N#Cc1cnc2cnc(N[C@H]3CCc4ccccc43)cc2c1Nc1ccc(F)c(Cl)c1` [Example 72] in this work.
An IC50 [1] greater than 10 µM was found for `N#Cc1cnc2cnc(NCc3cccnc3)cc2c1Nc1ccc(Cl)cc1` [Example 16, 4-(4-chlorophenylamino)-6-(pyridin-3-ylmethylamino)-1,7-naphthyridine-3-carbonitrile] in this work.
An IC50 [2] of 0.079 µM was found for `N#Cc1cnc2cnc(Nc3c[nH]cn3)cc2c1Nc1ccc(F)c(Cl)c1` [Example 140, 4-[(3-chloro-4-fluorophenyl)amino]-6-{[4(5)imidazolyl]amino}-1,7-naphthyridine-3-carbonitrile] in this work.
An IC50 [2] of 2.4 µM was found for `N#Cc1cnc2cnc(NCCN3CCN(Cc4ccccc4)CC3)cc2c1Nc1ccc(F)c(Cl)c1` [Example 117, 6-(2-(4-benzylpiperazin-1-yl)ethylamino)-4-(3-chloro-4-fluorophenylamino)-1,7-naphthyridine-3-carbonitrile] in this work.
An IC50 [1] greater than 10 µM was found for `N#Cc1cnc2cnc(NCCN3CCOCC3)cc2c1Nc1cccc(-c2ccco2)c1` [Example 80, 4-(3-(furan-2-yl)phenylamino)-6-(2-morpholinoethylamino)-1,7-naphthyridine-3-carbonitrile] in this work.
An IC50 [1] of 7.6 µM was found for `N#Cc1cnc2cnc(NCCN3CCOCC3)cc2c1Nc1ccc(Nc2ccccc2)cc1` [Example 10, 6-(2-morpholinoethylamino)-4-(4-(phenylamino)phenylamino)-1,7-naphthyridine-3-carbonitrile] in this work.
An IC50 [1] greater than 40 µM was found for `N#Cc1cnc2cnc(OCCN3CCOCC3)cc2c1Nc1ccc(F)c(Cl)c1` [Example 39, 4-[(3-chloro-4-fluorophenyl)amino]-6-(2-morpholin-4-ylethoxy)-1,7-naphthyridine-3-carbonitrile] in this work.
An IC50 [1] of 0.29 µM was found for `N#Cc1cnc2cnc(NCc3cccnc3)cc2c1Nc1ccc(F)c(F)c1` [Example 20, 4-(3,4-difluorophenylamino)-6-(pyridin-3-ylmethylamino)-1,7-naphthyridine-3-carbonitrile] in this work.
An IC50 [1] of 1.5 µM was found for `N#Cc1cnc2cnc(N[C@@H]3CCCc4ccccc43)cc2c1Nc1ccc(F)c(Cl)c1` [Example 70] in this work.
An IC50 [1] greater than 10 µM was found for `COC(=O)c1cccc(Nc2c(C#N)cnc3cnc(NCCN4CCOCC4)cc23)c1` [Example 83, Methyl 3-(3-cyano-6-(2-morpholinoethylamino)-1,7-naphthyridin-4-ylamino)benzoate] in this work.
An IC50 [2] of 2.5 µM was found for `N#Cc1cnc2cnc(NCCN3CCCCC3)cc2c1Nc1ccc(F)c(Cl)c1` [Example 122, 4-[(3-chloro-4-fluorophenyl)amino]-6-[(2-piperidin-1-ylethyl)amino]-1,7-naphthyridine-3-carbonitrile] in this work.
An IC50 [2] of 0.63 µM was found for `CC(C)(C)Nc1c(C#N)cnc2cnc(NCc3cccnc3)cc12` [Example 110, 4-(tert-butylamino)-6-[(pyridin-3-ylmethyl)amino]-1,7-naphthyridine-3-carbonitrile] in this work.
An IC50 [1] greater than 40 µM was found for `CC(C)c1ccc(Nc2c(C#N)cnc3cnc(NCCN4CCOCC4)cc23)cc1` [Example 43, 4-[(4-isopropylphenyl)amino]-6-[(2-morpholin-4-ylethyl)amino]-1,7-naphthyridine-3-carbonitrile] in this work.
An IC50 [2] greater than 40 µM was found for `N#Cc1cnc2cnc(F)cc2c1Nc1ccc(C(F)(F)F)cc1` [Example 100, 6-fluoro-4-{[4-(trifluoromethyl)phenyl]amino}-1,7-naphthyridine-3-carbonitrile] in this work.
An IC50 [1] greater than 10 µM was found for `CS(=O)(=O)Nc1cccc(Nc2c(C#N)cnc3cnc(NCCN4CCOCC4)cc23)c1` [Example 85, N-(3-(3-cyano-6-(2-morpholinoethylamino)-1,7-naphthyridin-4-ylamino)phenyl)methanesulfonamide] in this work.
An IC50 [2] greater than 10 µM was found for `CN(c1ccc(F)c(Cl)c1)c1c(C#N)cnc2cnc(F)cc12` [Example 107, 4-[(3-chloro-4-fluorophenyl)(methyl)amino]-6-fluoro-1,7-naphthyridine-3-carbonitrile] in this work.
An IC50 [1] of 1.16 µM was found for `N#Cc1cnc2cnc(NCCN3CCOCC3)cc2c1Nc1cccc(Cl)c1` [Example 3, 4-(3-chlorophenylamino)-6-(2-morpholinoethylamino)-1,7-naphthyridine-3-carbonitrile] in this work.
